Article PMC8508980, “Design, Synthesis and Anticancer Profile of New 4-(1H-benzo[d]imidazol-1-yl)pyrimidin-2-amine-Linked Sulfonamide Derivatives with V600EBRAF Inhibitory Effect” (International Journal of Molecular Sciences, 2021)

How the values were obtained:
V600EBRAF = target: T1, V600EBRAF (Homo sapiens, UniProt P15056, V600E); test: Reaction Biology kinase HotSpot enzyme assay; format: biochemical; details: 1 µM ATP; for IC50: mean ± S.D. of two separate experiments; for % Inhibition at 1 µM over V600EBRAF / inhibition at 1 µM: single dose 1 µM, mean ± S.D. of two experiments; for inhibition at 1 µM: read-out: % Inhibition at 1 µM over V600EBRAF
T1 construct: purchased Reaction Biology Corp. (Kinase HotSpot service)
Experimental: Reaction Biology Corp. Kinase HotSpotTM service
Proﬁler Express for IC50 measurement. Assay protocol: In a ﬁnal reaction volume of 25 μL, kinase (5–10 mU) is incubated with 25 mM Tris pH 7.5, 0.02 mM EGTA, 0.66 mg/mL myelin basic protein, 10 mM magnesium acetate and [γ33P-ATP] (speciﬁc activity approx. 500 cpm/pmol, concentration as required). The reaction is initiated by the addition of the Mg-ATP mix. After incubation for 40 min at room temperature, the reaction is stopped by the addition of 5 μL of a 3% phosphoric acid solution. 10 μL of the reaction is then spotted onto a P30 ﬁltermat, and washed three times for 5 min in 75 mM phosphoric acid and once in methanol prior to drying and scintillation counting.

KM12 = test: NCI 60 cell line screen; format: cell-based, human; details: for activity at 10 µM: Homo sapiens, KM12, Colon Cancer, read-out: Percent growth
Summary of the method: (§1)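 Cells grown in RPMI 1640 with 5% FBS were plated 24 h before dosing, then exposed for 48 h at 37 °C to five drug concentrations (maximum 10 µM). Adherent cells were TCA-fixed, suspension cells fixed with 80% TCA. SRB absorbance at 515 nm, relative to time-zero and control plates, gave percent growth and TGI.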

SNB-75 = test: NCI 60 cell line screen; format: cell-based, human; details: for activity at 10 µM: Homo sapiens, SNB-75, CNS-Cancer, read-out: Percent growth
Summary of the method: as §1

T-47D = test: NCI 60 cell line screen; format: cell-based, human; details: for activity at 10 µM: Homo sapiens, T47D, Breast Cancer, read-out: Percent growth; for percent inhibition: NCI-60 heat map analysis
Summary of the method: as §1

NCI-H460 = test: NCI 60 cell line screen; format: cell-based, human; details: for activity at 10 µM: Homo sapiens, NCI-H460, Non-Small Cell Lung Cancer, read-out: Percent growth
Summary of the method: as §1

PC-3 = test: NCI 60 cell line screen; format: cell-based, human; details: for activity at 10 µM: Homo sapiens, PC-3, Prostate Cancer, read-out: Percent growth
Summary of the method: as §1

HCT-15 = test: NCI 60 cell line screen; format: cell-based, human; details: for activity at 10 µM: Homo sapiens, HCT-15, Colon Cancer, read-out: Percent growth
Summary of the method: as §1

OVCAR-4 = test: NCI 60 cell line screen; format: cell-based, human; details: for activity at 10 µM: Homo sapiens, OVCAR-4, Ovarian Cancer, read-out: Percent growth
Summary of the method: as §1

UO-31 = test: NCI 60 cell line screen; format: cell-based, human; details: for activity at 10 µM: Homo sapiens, UO-31, Renal Cancer, read-out: Percent growth
Summary of the method: as §1

HT29 = test: NCI 60 cell line screen; format: cell-based, human; details: Homo sapiens, HT-29; HT29, Colon Cancer; read-out: Percent growth
Summary of the method: as §1

MOLT-4 = test: NCI 60 cell line screen; format: cell-based, human; details: for activity at 10 µM: Homo sapiens, MOLT-4, Leukemia, read-out: Percent growth; for percent inhibition: MOLT-4, NCI-60 heat map analysis
Summary of the method: as §1

RPMI-8226 = test: NCI 60 cell line screen; format: cell-based, human; details: for activity at 10 µM: Homo sapiens, RPMI-8226, Leukemia, read-out: Percent growth; for percent inhibition: RPMI-8226, NCI-60 heat map analysis
Summary of the method: as §1

CAKI-1 = test: NCI 60 cell line screen; format: cell-based, human; details: Homo sapiens; CAKI-1, Renal Cancer; read-out: Percent growth
Summary of the method: as §1

OVCAR-8 = test: NCI 60 cell line screen; format: cell-based; details: Homo sapiens; OVCAR-8, Ovarian Cancer; read-out: Percent growth
Experimental: (§2) Anticancer profiling over a panel of 60 cancer cell lines was carried out at the National Cancer Institute (NCI), Bethesda, Maryland, USA, https://dtp.cancer.gov/discovery_development/nci-60/methodology.htm (Last visit 22 September 2021), using the standard procedure (detailed procedure is located in the Supplementary Information page 50 s).
(§3) NCI standard procedure for 60 cell lines assay
(§4) The human tumor cell lines of the cancer screening panel are grown in RPMI 1640 mediu m containing 5% fetal bovine serum and 2 mM L-glutamine. For a typical screening experiment, cells are inoculated into 96 well microtiter plates in 100 μL at plating densities ranging from 5,000 to 40,000 cells/well depending on the doubling time of individual cell lines. After cell inoculation, the microtiter plates are incubated at 37° C, 5 % CO2, 95 % air and 100 % relative humidity for 24 h prior to addition of experimental drugs.
(§5) After 24 h, two plates of each cell line are fixed in situ with TCA, to represent a measurement of the cell population for each cell line at the time of drug addition (Tz). Experimental drugs are solubilized in dimethyl sulfoxide at 400-fold the desired final maximum test concentration (10 µM) and stored frozen prior to use. At the time of drug addition, an aliquot of frozen concentrate is thawed and diluted to twice the desired final maximum test concentration with co mp lete medium containing 50 μg/ml gentamicin. Additional four, 10-fold or ½ log serial dilutions are made to provide a total of five drug concentrations plus control. Aliquots of 100 μl of these different drug dilutions are added to the appropriate microtiter wells already containing 100 μl of medium, resulting in the required final drug concentrations.
(§6) Following drug addition, the plates are incubated for an additional 48 h at 37°C, 5 % CO2, 95 % air, and 100 % relative humidity. For adherent cells, the assay is terminated by the addition of cold TCA. Cells are fixed in situ by the gentle addition of 50 μl of cold 50 % (w/v) TCA (final concentration, 10 % TCA) and incubated for 60 minutes at 4°C. The supernatant is discarded, and the plates are washed five times with tap water and air dried. Sulforhodamine B (SRB) solution (100 μl) at 0.4 % (w/v) in 1 % acetic acid is added to each well, and plates are incubated for 10 minutes at room temperature. After staining, unbound dye is removed by washing five times with 1 % acetic acid and the plates are air dried. Bound stain is subsequently solubilized with 10 mM trizma base, and the absorbance is read on an automated plate reader at a wavelength of 515 nm. For suspension cells, the methodology is the same except that the assay is terminated by fixing settled cells at the bottom of the wells by g ently adding 50 μl of 80 % TCA (final concentration, 16 % TCA). Using the seven absorbance measurements [time zero, (Tz), control growth, (C), and test growth in the presence of drug at the five concentration levels (Ti)], the percentage growth is calculated at each of the drug concentrations levels. Percentage growth inhibition is calculated as:
(§7) [(Ti-Tz)/(C-Tz)] x 100 for concentrations for which Ti>/=Tz
(§8) [(Ti-Tz)/Tz] x 100 for concentrations for which Ti<Tz.
(§9) Three dose response parameters are calculated for each experimental agent. Growth inhibition of […]
(§10) resulting in a 50% reduction in the net protein increase (as measured by SRB staining) in control cells during the drug incubation. The drug concentration resulting in total growth inhibition […]
(§11) (TGI) is calculated from Ti = Tz.

CCRF-CEM = test: NCI 60 cell line screen; format: cell-based; details: Homo sapiens, Leukemia, read-out: Percent growth
Experimental: as §2, §3, §4, §5, §6, §7, §8, §9, §10, §11

OVCAR-3 = test: NCI 60 cell line screen; format: cell-based; details: Homo sapiens; OVCAR-3, Ovarian Cancer; read-out: Percent growth
Experimental: as §2, §3, §4, §5, §6, §7, §8, §9, §10, §11

T1 sequence (P15056 whole entry V600E): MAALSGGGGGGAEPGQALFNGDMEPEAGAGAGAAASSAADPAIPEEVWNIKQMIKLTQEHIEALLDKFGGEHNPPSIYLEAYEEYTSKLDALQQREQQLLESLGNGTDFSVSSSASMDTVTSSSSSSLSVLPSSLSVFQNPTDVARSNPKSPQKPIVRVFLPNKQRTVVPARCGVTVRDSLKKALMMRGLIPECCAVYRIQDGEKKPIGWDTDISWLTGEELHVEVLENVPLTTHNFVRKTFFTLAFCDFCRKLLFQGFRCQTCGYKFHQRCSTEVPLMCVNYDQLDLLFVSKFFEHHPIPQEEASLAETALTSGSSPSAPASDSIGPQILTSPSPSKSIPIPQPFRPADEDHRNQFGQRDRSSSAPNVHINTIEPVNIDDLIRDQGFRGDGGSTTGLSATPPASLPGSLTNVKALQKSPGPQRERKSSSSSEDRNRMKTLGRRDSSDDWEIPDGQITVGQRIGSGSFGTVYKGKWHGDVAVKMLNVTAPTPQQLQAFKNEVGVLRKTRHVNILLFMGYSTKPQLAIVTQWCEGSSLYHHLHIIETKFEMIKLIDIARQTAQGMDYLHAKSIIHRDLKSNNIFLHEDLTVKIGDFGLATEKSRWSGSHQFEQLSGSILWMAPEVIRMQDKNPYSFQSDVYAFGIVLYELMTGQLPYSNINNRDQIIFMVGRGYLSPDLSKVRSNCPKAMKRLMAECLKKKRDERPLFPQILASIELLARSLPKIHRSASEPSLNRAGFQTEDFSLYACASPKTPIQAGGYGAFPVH

SMILES | IC50 (V600EBRAF) [nM] | % Inhibition at 1 µM over V600EBRAF (V600EBRAF) [%] | inhibition at 1 µM (V600EBRAF) [%] | activity at 10 µM (KM12) [%] | activity at 10 µM (SNB-75) [%] | activity at 10 µM (T-47D) [%] | percent inhibition (T-47D) [%] | activity at 10 µM (NCI-H460) [%] | activity at 10 µM (PC-3) [%] | activity at 10 µM (HCT-15) [%] | activity at 10 µM (OVCAR-4) [%] | activity at 10 µM (UO-31) [%] | activity at 10 µM (HT29) [%] | activity at 10 µM (MOLT-4) [%] | percent inhibition (MOLT-4) | activity at 10 µM (RPMI-8226) [%] | activity at 10 µM (CAKI-1) [%] | activity at 10 µM (OVCAR-8) [%] | activity at 10 µM (CCRF-CEM) [%] | activity at 10 µM (OVCAR-3) [%] | further results
O=S(=O)(NCCNc1nccc(-n2cnc3ccccc32)n1)c1ccc(C(F)(F)F)cc1 [12e, N-(2-((4-(1H-benzo [d]imidazol-1-yl)pyrimidin-2-yl)amino)ethyl)-4-(trifluoromethyl)benzenesulfonamide] | 620 ± 31 | 98.24 ± 0.44 | 98 | 58.7 | 46.8 | 22.3 | 77 | 57.8 | 45.5 | 60.7 | 28.4 | 39.9 | 68 | 45.2 | 55% | 44.9 | 43.1 | 63.5 | 57.6 | 72.9 | percent inhibition (KM12; KM12, NCI-60 heat map analysis): around 40%; percent inhibition (SNB-75; SNB-75, NCI-60 heat map analysis): more than 50%; percent inhibition (NCI-H460; NCI-H460, NCI-60 heat map analysis): around 40%; percent inhibition (PC-3; PC-3, NCI-60 heat map analysis): 55%; percent inhibition (HCT-15; HCT-15, NCI-60 heat map analysis): around 40%; percent inhibition (OVCAR-4; OVCAR-4, NCI-60 heat map analysis): 71%; percent inhibition (RPMI-8226): 55%
COc1ccc(S(=O)(=O)NCCNc2nccc(-n3cnc4ccccc43)n2)cc1 [12f, N-(2-((4-(1H-benzo [d]imidazol-1-yl)pyrimidin-2-yl)amino)ethyl)-4-methoxy benzenesulfonamide] | 980 ± 20 | 55.21 ± 0.52 | 55 | 93.2 | 78.8 | 82.3 |  | 106 | 97.5 | 93.7 | 84.3 | 77.3 | 100 | 93.3 |  | 94 | 79.6 | 91.5 | 102 | 103 | 
Cc1ccc(S(=O)(=O)NCCNc2nccc(-n3cnc4ccccc43)n2)cc1 [12g, N-(2-((4-(1H-benzo [d]imidazol-1-yl)pyrimidin-2-yl)amino)ethyl)-4-methyl benzenesulfonamide] | 790 ± 42 | 82.11 ± 0.32 | 82 | 77.4 | 69 | 27.6 | 73 | 79 | 76.1 | 80.2 | 42.1 | 52 | 90.2 | 55.3 | around 45% | 52.5 | 57.5 | 79.8 | 69.5 | 82 | percent inhibition (UO-31; UO-31, NCI-60 heat map analysis): 48%; percent inhibition (RPMI-8226): around 45%
O=S(=O)(NCCCNc1nccc(-n2cnc3ccccc32)n1)c1ccccc1 [12h, N-(3-((4-(1H-benzo [d]imidazol-1-yl)pyrimidin-2-yl)amino)propyl)benzenesulfonamide] | 1120 ± 98 | 49.54 ± 0.61 | 50 | 71 | 89.7 | 45.8 | 55 | 96.9 | 89.2 | 88 | 74.5 | 75.3 | 101 | 77.2 |  | 74.3 | 87.4 | 84 | 88.1 | 106 | 
